Reference: patent US4256731A, “Oral Compositions” (priority 1979, dated 1981)

Assay: in vitro stain assay: inhibition of alexidine dihydrochloride mediated stain on saliva-coated hydroxylapatite, 5% tannic acid as staining agent
Conditions: tested in triplicate, pH and acid:alexidine mole ratio as listed per formulation
Description: Methods: The substrate for the in vitro stain assay was a saliva-coated hydroxylapatite and the staining agent was 5% tannic acid. Each formulation was tested in triplicate.

Row | SMILES | % Inhibition of Alexidine . 2HCl Mediated Stain [%]
1 | N[C@@H](CC(=O)O)C(=O)O [Aspartic Acid] | 34
2 | O=C(O)CC(O)(CC(=O)O)C(=O)O [Citric Acid] | 32
3 | O=C(O)/C=C/C(=O)O [Fumaric Acid] | 44
4 | N[C@@H](CCC(=O)O)C(=O)O [Glutamic Acid] | 40
5 | Nc1ccc(C(=O)O)cc1 [p-Aminobenzoic Acid] | 22
